Assay results published in patent publication EP2951180B1, “2,6,7,8 SUBSTITUTED PURINES AS HDM2 INHIBITORS” (Merck Sharp & Dohme Corp., priority 2013, dated 2014).
Where two headings read alike, the source gives them in different places.

Target: T1, HDM2 (Homo sapiens, UniProt Q00987)
T1 construct: Thioredoxin (N); made in house; host or cells: E. coli strain BL21(DE3)Rosetta
Experiment: HDM2 FRET assay (inhibition of binding of FITC labeled p53-pocket peptide to HDM2)
Summary of the method: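 Compounds were tested in 10-point serial dilution against 0.5 nM recombinant HDM2 binding 3 nM fluorescein-labeled p53-pocket peptide. Detection used 0.25 nM terbium cryptate anti-6xHis antibody in PBS buffer containing 0.01% BSA and 0.01% Tween-20.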

[1] = 0.5 nM HDM2 (residues 17 to 125), 3nM peptide, two hour incubation at room temperature, read-out: FRET IC50

T1 sequence (Q00987 17-125): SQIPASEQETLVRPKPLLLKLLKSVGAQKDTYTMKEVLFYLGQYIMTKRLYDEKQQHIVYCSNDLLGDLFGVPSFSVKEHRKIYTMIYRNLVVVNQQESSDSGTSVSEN

With `Cc1cccc(-c2nc3nc(C(=O)O)nc(NC4CCCCC4)c3n2Cc2ccc(C(F)(F)F)cc2)c1` [Example 6.28, 6-(cyclohexylamino)-8-(3-methylphenyl)-7-[4-(trifluoromethyl)benzyl]-7H-purine-2-carboxylic acid] as the compound, how does the IC50 (Table 6, read-out: FRET IC50) read?
Its IC50 is 589 nM.

For `Cc1cccc(-c2nc3nc(C(N)=O)nc(N[C@H](C)C4CCC4)c3n2Cc2ccc(C(F)(F)F)cc2)c1` [Example 12.29, 6-{[(1R)-1-cyclobutylethyl]amino} -8-(3-methylphenyl)-7-[4-(trifluoromethyl)benzyl]-7H-purine-2-carboxamide], which IC50 [1] is on record?
The IC50 was 1410 nM.

How did the IC50 [1] turn out when `CCc1cccc(-c2nc(-c3noc(=O)[nH]3)nc3nc(N4CCOC[C@H]4c4ccccc4)n(C[C@H]4CC[C@H](C)CC4)c23)c1` [Example 16.30, 3-{6-(3-ethylphenyl)-7-[(trans-4-methylcyclohexyl)methyl]-8-[(3R)-3-phenylmorpholin-4-yl]-7H-purin-2-yl}-1,2,4-oxadiazol-5(4H)-one] was run?
The IC50 was 2.77 nM.

Which IC50 (Table 21, read-out: FRET IC50) does the source give for `C[C@@H](Nc1nc(C(=O)O)nc2nc(C3CCCC(=O)C3c3ccccc3)n(Cc3ccc(C(F)(F)F)cc3)c12)C1CCC1` (stereo partly drawn) [Example 21.11, 6-{[(1R)-1-cyclobutylethyl]amino}-8-(3-oxo-2-phenylcyclohexyl)-7-[4-(trifluoromethyl)benzyl]-7H-purine-2-carboxylic acid] here?
The IC50 was 8.72 nM.

`CC(Nc1nc2nc(-c3noc(=O)[nH]3)nc(N[C@H](C)C3CCC3)c2n1C[C@H]1CC[C@H](C)CC1)c1ccno1` (stereo partly drawn) [Example 11.87, 3-(6-{[(1R)-1-cyclobutylethyl]amino}-8-[(1-isoxazol-5-ylethyl)amino]-7-[(trans-4-methylcyclohexyl)methyl]-7H-purin-2-yl)-1,2,4-oxadiazol-5(2H)-one] was tested. Which IC50 (Table 11, read-out: FRET IC50) did it give?
The IC50 was 105 nM.

`CN(Cc1ccccc1)c1nc2nc(-c3n[nH]c(=O)o3)nc(-c3cccc(Cl)c3)c2n1C[C@H]1CC[C@H](C)CC1` [Example 16.62, 5-{8-[benzyl(methyl)amino]-6-(3-chlorophenyl)-7-[(trans-4-methylcyclohexyl)methyl]-7H-purin-2-yl}-1,3,4-oxadiazol-2(3H)-one] was tested. Which IC50 [1] did it give?
Its IC50 is 136 nM.

`COC(c1ccccc1)c1nc2nc(-c3noc(=O)[nH]3)nc(N[C@H](C)C3CCC3)c2n1C[C@H]1CC[C@H](C)CC1` (single isomer, unassigned) [Example 22.19, 3-(6-{[(1R)-1-cyclobutylethyl]amino}-8-[(R or S)-methoxy(phenyl)methyl]-7-[(trans-4-methylcyclohexyl)methyl]-7H-purin-2-yl)-1,2,4-oxadiazol-5(4H)-one] was tested. Which IC50 (Table 22, read-out: FRET IC50) did it give?
Its IC50 is 7.7 nM.

With `C[C@@H](Nc1nc(-c2noc(=O)[nH]2)nc2nc(C(C)(O)c3ccccn3)n(C[C@H]3CC[C@H](C)CC3)c12)C1CCC1` (single isomer, unassigned) [Example 22.6] as the compound, how does the IC50 (Table 22, read-out: FRET IC50) read?
Its IC50 is 10.4 nM.

For `Cc1cccc(-c2nc3nc(C(=O)O)nc(NC(C)C(C)(C)C)c3n2Cc2ccc(C(F)(F)F)cc2)c1` (stereo not drawn) [Example 6.74, 8-(3-methylphenyl)-7-[4-(trifluoromethyl)benzyl]-6-[(1,2,2-trimethylpropyl)amino]-7H-purine-2-carboxylic acid], which IC50 (Table 6, read-out: FRET IC50) is on record?
The IC50 was 552 nM.

For `C[C@H]1CC[C@H](Cn2c(C3(c4ccccc4)CCC3)nc3nc(-c4noc(=O)[nH]4)nc(-c4cncc(Cl)c4)c32)CC1` [Example 20.11, 3-[6-(5-chloropyridin-3-yl)-7-[(trans-4-methylcyclohexyl)methyl]-8-(1-phenylcyclobutyl)-7H-purin-2-yl]-1,2,4-oxadiazol-5(4H)-one], which IC50 (Table 20, read-out: FRET IC50) is on record?
Its IC50 is 3.39 nM.

How did the IC50 [1] turn out when `Cc1noc([C@@H]2COCCN2c2nc3nc(-c4n[nH]c(=O)o4)nc(-c4cccc(Cl)c4)c3n2C[C@H]2CC[C@H](C)CC2)n1` [Example 16.121, 5-{6-(3-chlorophenyl)-7-[(trans-4-methylcyclohexyl)methyl]-8-[(3S)-3-(3-methyl-1,2,4-oxadiazol-5-yl)morpholin-4-yl]-7H-purin-2-yl}-1,3,4-oxadiazol-2(3H)-one] was run?
Its IC50 is 9.18 nM.

Which IC50 [1] does the source give for `CC(c1nc2nc(-c3noc(=O)[nH]3)nc(-c3cccc(Cl)c3)c2n1C[C@H]1CC[C@H](C)CC1)C1CCOCC1` (relative stereo) [Example 24.3, 3-{6-(3-chlorophenyl)-7-[(trans-4-methylcyclohexyl)methyl]-8-[1-(tetrahydro-2H-pyran-4-yl)ethyl]-7H-purin-2-yl}-1,2,4-oxadiazol-5(4H)-one] here?
The IC50 was 14.2 nM.

With `C[C@@H](Nc1nc(C(=O)O)nc2nc(N3C4CCC3COC4)n(Cc3ccc(C(F)(F)F)cc3)c12)C1CCC1` [Example 9.76, 6-{[(1R)-1-cyclobutylethyl]amino}-8-(3-oxa-8-azabicyclo[3.2.1]oct-8-yl)-7-[4-(trifluoromethyl)benzyl]-7H-purine-2-carboxylic acid] as the compound, how does the IC50 (FRET IC50) read?
The IC50 was 15.9 nM.

Which IC50 (Table 22, read-out: FRET IC50) does the source give for `Cc1nc(C2(c3nc4nc(-c5noc(=O)[nH]5)nc(N[C@H](C)C5CCC5)c4n3C[C@H]3CC[C@H](C)CC3)CC2)c(C)s1` [Example 22.72, 3-(6-{[(1R)-1-cyclobutylethyl]amino}-8-[1-(2,5-dimethyl-1,3-thiazol-4-yl)cyclopropyl]-7-[(trans-4-methylcyclohexyl)methyl] -7H-purin-2-yl)-1,2,4-oxadiazol-5(4H)-one] here?
The IC50 was 3.04 nM.

With `C[C@H]1CC[C@H](Cn2c(N3CCOC[C@H]3c3ccncc3)nc3nc(-c4n[nH]c(=O)o4)nc(-c4cccc(Cl)c4)c32)CC1` [Example 16.97, 5-{6-(3-chlorophenyl)-7-[(trans-4-methylcyclohexyl)methyl]-8-[(3R)-3-pyridin-4-ylmorpholin-4-yl]-7H-purin-2-yl}-1,3,4-oxadiazol-2(3H)-one] as the compound, how does the IC50 [1] read?
Its IC50 is 3.81 nM.

Which IC50 (Table 9, read-out: FRET IC50) does the source give for `CC(C)CC1CCCCN1c1nc2nc(C(=O)O)nc(N[C@H](C)C3CCC3)c2n1Cc1ccc(C(F)(F)F)cc1` (stereo partly drawn) [Example 9.120, 6-{[(1R)-1-cyclobutylethyl]amino}-8-[2-(2-methylpropyl)piperidin-1-yl]-7-[4-(trifluoromethyl)benzyl]-7H-purine-2-carboxylic acid] here?
The IC50 was 5.32 nM.

For `C[C@@H](Nc1nc(C(O)CO)nc2nc(N3CCOC[C@H]3c3ccccc3)n(C[C@H]3CC[C@H](C)CC3)c12)C1CCC1` (stereo partly drawn) [Example 12.20, 1-(6-(((R)-1-cyclobutylethyl)amino)-7-((trans-4-methylcyclohexyl)methyl)-8-((R)-3-phenylmorpholino)-7H-purin-2-yl)ethane-1,2-diol], which IC50 [1] is on record?
Its IC50 is 49.4 nM.

Which IC50 (Table 22, read-out: FRET IC50) does the source give for `C[C@@H](Nc1nc(-c2noc(=O)[nH]2)nc2nc(C(C)(O)c3cscn3)n(C[C@H]3CC[C@H](C)CC3)c12)C1CCC1` (stereo partly drawn) [Example 22.50, 3-(6-{[(1R)-1-cyclobutylethyl]amino}-8-[1-hydroxy-1-(1,3-thiazol-4-yl)ethyl]-7-[(trans-4-methylcyclohexyl)methyl] -7H-purin-2-yl)-1,2,4-oxadiazol-5(4H)-one] here?
Its IC50 is 10.3 nM.

Which IC50 (Table 9, read-out: FRET IC50) does the source give for `C[C@@H](Nc1nc(-c2noc(=O)[nH]2)nc2nc(N(C)CC3CCCN(C)C3)n(Cc3ccc(C(F)(F)F)cc3)c12)C1CCC1` (stereo partly drawn) [Example 9.99] here?
Its IC50 is 45 nM.

For `CCOc1nc(C(=O)O)nc2nc(-c3cccc(C)c3)n(Cc3ccc(C(F)(F)F)cc3)c12` [Example 17.1, 6-ethoxy-8-(3-methylphenyl)-7-[4-(trifluoromethyl)benzyl]-7H-purine-2-carboxylic acid], which IC50 [1] is on record?
Its IC50 is 5900 nM.

For `Cc1cccc(-c2nc3ncnc(N4CCC[C@@H]4C4CCC4)c3n2Cc2ccc(C(F)(F)F)cc2)c1` [Example 7.9, 6-[(2R)-2-cyclobutylpyrrolidin-1-yl]-8-(3-methylphenyl)-7-[4-(trifluoromethyl)benzyl]-7H-purine], which IC50 (Table 7, read-out: FRET IC50) is on record?
The IC50 was 4480 nM.
